In patent publication US7153873B2, “Salts of bicyclic, N-acylated imidazo-3-amines and imidazo-5-amines” (Gruenenthal GmbH, priority 2000, dated 2006):

What follows are molecules tested against T1, μ-opiate receptor (Rattus norvegicus, UniProt P33535) (assay: μ-Opiate receptor binding investigations on rat brain membrane homogenates with tritiated naloxone). Details: 10 μM compound; rat brain membrane homogenate (male Wistar rats); 1 nmol/l tritiated naloxone as radioactive ligand; read-out: μ-affinity % inhibition 10 μM.
T1 construct: homogenate of rat brain without cerebellum, pons and medulla oblongata of male Wistar rats; from tissue; host or cells: rat brain (without cerebellum, pons and medulla oblongata), male Wistar rats, membrane homogenate
Description: μ-Opiate Receptor Binding Investigations
Investigations to determine the affinity of the compounds of Formula I according to the invention for the μ-opiate receptor were carried out on brain membrane homogenates (homogenate of rat brain without cerebellum, pons and medulla oblongata of male Wistar rats).
For this purpose, the respective freshly prepared rat brain was homogenized in 50 mmol/l tris-HCl (pH 7.4) with ice cooling and was centrifuged for 10 minutes at 5,000 g and 4° C. After decanting and rejection of the supernatant, retrieval and homogenisation of the membrane sediment in 50 mmol/l tris-HCl (pH 7.4), the homogenate was then centrifuged for 20 minutes at 20,000 g and 4° C. This washing stage was repeated several times. The supernatant was then decanted and the membrane sediment homogenized in cold 50 mmol/l tris-HCl, 20% glycerol (w/v), 0.01% Bactitracin (w/v) (pH 7.4) and frozen in aliquots until testing. To test receptor binding, the aliquots were thawed and diluted 1:10 with the binding test buffer.
In the binding test, a 50 mmol/l tris-HCl, 5 mmol/l MgCl (pH 7.4) was used as buffer and 1 nmol/l tritiated naloxone as radioactive ligand.

T1 sequence (P33535 whole entry): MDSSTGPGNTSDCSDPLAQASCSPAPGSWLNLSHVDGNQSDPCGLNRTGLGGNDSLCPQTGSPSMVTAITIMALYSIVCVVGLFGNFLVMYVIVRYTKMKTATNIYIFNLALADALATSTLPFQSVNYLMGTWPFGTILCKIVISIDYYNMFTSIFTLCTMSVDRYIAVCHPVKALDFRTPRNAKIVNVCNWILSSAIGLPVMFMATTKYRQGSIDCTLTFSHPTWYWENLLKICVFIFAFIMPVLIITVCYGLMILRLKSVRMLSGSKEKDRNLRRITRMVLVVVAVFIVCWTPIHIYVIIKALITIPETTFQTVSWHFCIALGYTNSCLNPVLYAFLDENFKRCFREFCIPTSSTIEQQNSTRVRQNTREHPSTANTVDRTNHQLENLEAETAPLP

Going from CC(=O)[n+]1c(C)c(NC(C)(C)C)n2cccc(OCc3ccccc3)c21 [Example 8, 1-acetyl-8-benzyloxy-3-tert-butylamino-2-methyl-imidazo[1,2-a]pyridin-1-ium chloride] to CC(=O)[n+]1c(C)c(NC2CCCCC2)n2cccc(OCc3ccccc3)c21 [Example 7, 1-acetyl-8-benzyloxy-3-cyclohexylamino-2-methyl-imidazo[1,2-a]pyridin-1-ium chloride], the inhibition at 10 µM falls from 98% to 91%.

Compared with CC(=O)[n+]1c(-c2ccccc2)c(NC2CCCCC2)n2c3ccccc3ccc21 [Example 5, 3-acetyl-1-cyclohexylamino-2-phenyl-imidazo[1,2-a]-quinolin-3-ium chloride], CC(=O)[n+]1c(-c2ccccc2)c(NC2CCCCC2)n2cccnc21 [Example 6, 1-acetyl-3-cyclohexylamino-2-phenyl-imidazo[1,2-a]-pyrimidin-1-ium chloride] is lower in inhibition at 10 µM: 79% for the first, 53% for the second.

Molecule CC(=O)[n+]1c(-c2ccccc2)c(NC(C)(C)C)n2ccsc21 [Example 4, 7-acetyl-5-tert-butylamino-6-phenyl-imidazo[2,1-b]-thiazol-7-ium chloride] has an inhibition at 10 µM of 90%.
